Reference: US12065430B2, “Indazole compound or salt thereof” (TAIHO PHARMACEUTICAL CO., LTD., priority 2018, dated 2024)

Biological target: G12C K-Ras4B (1-169) (Homo sapiens (Human), UniProt P01116, G12C)
Assay: Test of compounds on whether to bind to KRASG12C (LC-MS compound binding rate)
Conditions: final compound concentration of 2 μM, 1 μM protein, 25° C. for 2 hours
Summary of the method: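 K-Ras4B (1-169) WT and G12C (1 μM each, mixed) in 1×TBS, 0.1 mM TCEP incubated with compound (final 2 μM) 2 h at 25° C; quenched with 0.2% formic acid. Intact-protein LC-MS (ESI+, deconvoluted); binding rate = adduct signal/(adduct + unbound signal), giving selectivity over WT.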

G12C K-Ras4B (1-169), sequence (P01116 other isoform, or with tags, fused parts or gaps G12C): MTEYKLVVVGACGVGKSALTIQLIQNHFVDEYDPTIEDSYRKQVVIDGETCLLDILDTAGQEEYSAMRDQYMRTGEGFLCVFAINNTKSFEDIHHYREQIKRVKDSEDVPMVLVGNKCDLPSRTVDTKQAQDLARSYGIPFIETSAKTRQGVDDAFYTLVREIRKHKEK

Compound	binding rate for G12C K-Ras4B (1-169)
C=CC(=O)N1C[C@@H](CN(C)C)[C@@H](NC(=O)c2c(C)nc(CNc3n[nH]c4cc(Cl)c(C(C)(C)C)cc34)n2C)C1 [Example 68, N-((3R,4R)-1-acryloyl-4-((dimethylamino)methyl)pyrrolidin-3-yl)-2-(((5-(tert-butyl)-6-chloro-1H-indazol-3-yl)amino)methyl)-1,4-dimethyl-1H-imidazole-5-carboxamide]	C (a binding rate of 40% or more and less than 60% is rated “C,”)
C=CC(=O)N1C[C@@H](CC)[C@@H](NC(=O)c2c(C)nc(CNc3n[nH]c4cc(Cl)c(C(C)(C)C)cc34)n2C)C1 [Example 69, N-((3R,4R)-1-acryloyl-4-ethylpyrrolidin-3-yl)-2-(((5-(tert-butyl)-6-chloro-1H-indazol-3-yl)amino)methyl)-1,4-dimethyl-1H-imidazole-5-carboxamide]	E (a binding rate of less than 20% is rated “E.”)
C=CC(=O)N1C[C@H](NC(=O)c2c(C(F)F)nc(CNc3n[nH]c4cc(Cl)c(C(C)(C)C)cc34)n2C)[C@@H](F)C1 [Example 70, N-((3S,4S)-1-acryloyl-4-fluoropyrrolidin-3-yl)-2-(((5-(tert-butyl)-6-chloro-1H-indazol-3-yl)amino)methyl)-4-(difluoromethyl)-1-methyl-1H-imidazole-5-carboxamide]	A (a binding rate of 80% or more is rated “A,”)
C=CC(=O)N1C[C@@H](C)[C@@H](NC(=O)c2c(C(F)F)nc(CNc3n[nH]c4cc(Cl)c(C(C)(C)C)cc34)n2C)C1 [Example 71, N-((3R,4R)-1-acryloyl-4-methylpyrrolidin-3-yl)-2-(((5-(tert-butyl)-6-chloro-1H-indazol-3-yl)amino)methyl)-4-(difluoromethyl)-1-methyl-1H-imidazole-5-carboxamide]	C (a binding rate of 40% or more and less than 60% is rated “C,”)
C=CC(=O)N1CC[C@@H](NC(=O)c2c(F)nc(CNc3n[nH]c4cc(Cl)c(C(C)(C)C)cc34)n2C)C1 [Example 72, (R)—N-(1-acryloylpyrrolidin-3-yl)-2-(((5-(tert-butyl)-6-chloro-1H-indazol-3-yl)amino)methyl)-4-fluoro-1-methyl-1H-imidazole-5-carboxamide]	B (a binding rate of 60% or more and less than 80% is rated “B,”)
C=CC(=O)N1CC[C@@H](NC(=O)c2c(Cl)nc(CNc3n[nH]c4cc(Cl)c(C(C)(C)C)cc34)n2C)C1 [Example 73, (R)—N-(1-acryloylpyrrolidin-3-yl)-2-(((5-(tert-butyl)-6-chloro-1H-indazol-3-yl)amino)methyl)-4-chloro-1-methyl-1H-imidazole-5-carboxamide]	B (a binding rate of 60% or more and less than 80% is rated “B,”)
C=CC(=O)N1C[C@@H](C)[C@@H](NC(=O)c2c(F)nc(CNc3n[nH]c4cc(Cl)c(C(C)(C)C)cc34)n2C)C1 [Example 74, N-((3R,4R)-1-acryloyl-4-methylpyrrolidin-3-yl)-2-(((5-(tert-butyl)-6-chloro-1H-indazol-3-yl)amino)methyl)-4-fluoro-1-methyl-1H-imidazole-5-carboxamide]	A (a binding rate of 80% or more is rated “A,”)
C=CC(=O)N1CC[C@@H](N(C)C(=O)c2cnc(CNc3n[nH]c4cc(Cl)c(C(C)(C)C)cc34)n2C)C1 [Example 77, (R)—N-(1-acryloylpyrrolidin-3-yl)-2-(((5-(tert-butyl)-6-chloro-1H-indazol-3-yl)amino)methyl)-N,1-dimethyl-1H-imidazole-5-carboxamide]	C (a binding rate of 40% or more and less than 60% is rated “C,”)
Cc1nc(CNc2n[nH]c3cc(Cl)c(C(C)(C)C)cc23)n(C(C)C)c1C(=O)NC1CN(C(=O)/C=C/CN2CCCCC2)C1 [Example 79, (E)-2-(((5-(tert-butyl)-6-chloro-1H-indazol-3-yl)amino)methyl)-1-isopropyl-4-methyl-N-(1-(4-(piperidin-1-yl)but-2-enoyl)azetidin-3-yl)-1H-imidazole-5-carboxamide]	E (a binding rate of less than 20% is rated “E.”)
Cc1nc(CNc2n[nH]c3cc(Cl)c(C(C)(C)C)cc23)n(C)c1C(=O)NC1CN(C(=O)/C=C/CN(C)C)C1 [Example 80, (E)-2-(((5-(tert-butyl)-6-chloro-1H-indazol-3-yl)amino)methyl)-N-(1-(4-(dimethylamino)but-2-enoyl)azetidin-3-yl)-1,4-dimethyl-1H-imidazole-5-carboxamide]	C (a binding rate of 40% or more and less than 60% is rated “C,”)
C/C=C/C(=O)N1CC(NC(=O)c2c(C)nc(CNc3n[nH]c4cc(Cl)c(C(C)(C)C)cc34)n2C(C)C)C1 [Example 81, (E)-N-(1-(but-2-enoyl)azetidin-3-yl)-2-(((5-(tert-butyl)-6-chloro-1H-indazol-3-yl)amino)methyl)-1-isopropyl-4-methyl-1H-imidazole-5-carboxamide]	E (a binding rate of less than 20% is rated “E.”)
CC#CC(=O)N1CC(NC(=O)c2c(C)nc(CNc3n[nH]c4cc(Cl)c(C(C)(C)C)cc34)n2C(C)C)C1 [Example 82, N-(1-(buty-2-noyl)azetidin-3-yl)-2-(((5-(tert-butyl)-6-chloro-1H-indazol-3-yl)amino)methyl)-1-isopropyl-4-methyl-1H-imidazole-5-carboxamide]	D (a binding rate of 20% or more and less than 40% is rated “D,”)
Cc1nc(CNc2n[nH]c3cc(Cl)c(C(C)(C)C)cc23)n(C(C)C)c1C(=O)NC1CN(C(=O)/C=C\Cl)C1 [Example 83, (Z)-2-(((5-(tert-butyl)-6-chloro-1H-indazol-3-yl)amino)methyl)-N-(1-(3-chloroacryloyl)azetidin-3-yl)-1-isopropyl-4-methyl-1H-imidazole-5-carboxamide]	D (a binding rate of 20% or more and less than 40% is rated “D,”)
CC(C)n1c(CNc2n[nH]c3cc(Cl)c(C(C)(C)C)cc23)nc(C(F)F)c1C(=O)NC1CN(C(=O)/C=C/CN(C)C)C1 [Example 84, (E)-2-(((5-(tert-butyl)-6-chloro-1H-indazol-3-yl)amino)methyl)-4-(difluoromethyl)-N-(1-(4-(dimethylamino)but-2-enoyl)azetidin-3-yl)-1-isopropyl-1H-imidazole-5-carboxamide]	C (a binding rate of 40% or more and less than 60% is rated “C,”)
COC/C=C/C(=O)N1CC(NC(=O)c2c(C)nc(CNc3n[nH]c4cc(Cl)c(C(C)(C)C)cc34)n2C(C)C)C1 [Example 85, (E)-2-(((5-(tert-butyl)-6-chloro-1H-indazol-3-yl)amino)methyl)-1-isopropyl-N-(1-(4-methoxybut-2-enoyl)azetidin-3-yl)-4-methyl-1H-imidazole-5-carboxamide]	C (a binding rate of 40% or more and less than 60% is rated “C,”)
C=CS(=O)(=O)N1CC(NC(=O)c2c(C)nc(CNc3n[nH]c4cc(Cl)c(C(C)(C)C)cc34)n2C(C)C)C1 [Example 86, 2-(((5-(tert-butyl)-6-chloro-1H-indazol-3-yl)amino)methyl)-1-isopropyl-4-methyl-N-(1-(vinylsulfonyl)azetidin-3-yl)-1H-imidazole-5-carboxamide]	A (a binding rate of 80% or more is rated “A,”)
C=CC(=O)N1CC(NC(=O)c2c(Cl)nc(CNc3n[nH]c4cc(Cl)c(C(C)(C)C)cc34)n2CCCC)C1 [Example 87, N-(1-acryloylazetidin-3-yl)-1-butyl-2-(((5-(tert-butyl)-6-chloro-1H-indazol-3-yl)amino)methyl)-4-chloro-1H-imidazole-5-carboxamide]	A (a binding rate of 80% or more is rated “A,”)
C=CC(=O)N1CC(NC(=O)c2cnc(CNc3n[nH]c4cc(Cl)c(C(C)(C)C)cc34)n2Cc2cc(OC)cc(OC)c2)C1 [Example 88, N-(1-acryloylazetidin-3-yl)-2-(((5-(tert-butyl)-6-chloro-1H-indazol-3-yl)amino)methyl)-1-(3,5-dimethoxybenzyl)-1H-imidazole-5-carboxamide]	B (a binding rate of 60% or more and less than 80% is rated “B,”)
C=CC(=O)N1CC(NC(=O)c2c(Cl)nc(CNc3n[nH]c4cc(Cl)c(C(C)(C)C)cc34)n2CC(C)C)C1 [Example 89, N-(1-acryloylazetidin-3-yl)-2-(((5-(tert-butyl)-6-chloro-1H-indazol-3-yl)amino)methyl)-4-chloro-1-isobutyl-1H-imidazole-5-carboxamide]	A (a binding rate of 80% or more is rated “A,”)
C=CC(=O)N1CC(NC(=O)c2c(Cl)nc(CNc3n[nH]c4cc(Cl)c(C(C)(C)C)cc34)n2CCOC)C1 [Example 90, N-(1-acryloylazetidin-3-yl)-2-(((5-(tert-butyl)-6-chloro-1H-indazol-3-yl)amino)methyl)-4-chloro-1-(2-methoxyethyl)-1H-imidazole-5-carboxamide]	A (a binding rate of 80% or more is rated “A,”)
C=CC(=O)N1CC(NC(=O)c2c(C(F)F)nc(CNc3n[nH]c4cc(Cl)c(C(C)(C)C)cc34)n2C2CCN(C)C2)C1 (stereo not shown) [Example 91, N-(1-acryloylazetidin-3-yl)-2-(((5-(tert-butyl)-6-chloro-1H-indazol-3-yl)amino)methyl)-4-(difluoromethyl)-1-(1-methylpyrrolidin-3-yl)-1H-imidazole-5-carboxamide]	A (a binding rate of 80% or more is rated “A,”)
C=CC(=O)N1CC(NC(=O)c2c(C(F)F)nc(CNc3n[nH]c4cc(Cl)c(C(C)(C)C)cc34)n2C2CCN(CC)C2)C1 (stereo not shown) [Example 92, N-(1-acryloylazetidin-3-yl)-2-(((5-(tert-butyl)-6-chloro-1H-indazol-3-yl)amino)methyl)-4-(difluoromethyl)-1-(1-ethylpyrrolidin-3-yl)-1H-imidazole-5-carboxamide]	B (a binding rate of 60% or more and less than 80% is rated “B,”)
